Experiments:
Format in all cases: cell-based, human
[1] = test system: IL1RN mRNA in HEK293T cells; assay: qPCR of IL1RN mRNA levels (dCas9-PYL-HA, FLAG-ABI-P300, sgRNAs)
Experimental: To study how IL1RN expression levels change, total RNAs from the cell lysates generated in the above experiment were purified and then subjected to qPCR analysis to quantify mRNA levels.
Human embryonic kidney cell HEK293T (American Type Culture Collection, Manassas, Va.) was cultured in Dulbecco's modified Eagle's medium (DMEM) (Gibco) with 10% FBS (Atlanta Biologicals), 1× GlutaMax (Gibco, Thermo Fisher Scientific, Inc., Waltham, Mass.), and 1× penicillin/streptomycin (Pen/Strep; Gibco, Thermo Fisher Scientific, Inc., Waltham, Mass.). Cells (100,000/ml) were plated in 24-well or 10-cm cell culture plate the day before transfection. For each well of 24-well plate transfection, 500 ng of dCas9-PYL-HA, 420 ng of FLAG-ABI-P300, and a total amount of 200-ng mix of gRNAs, with a 50-ng per each gRNA, were mixed with 50×(v/w) Opti-MEM (Gibco, Thermo Fisher Scientific, Inc., Waltham, Mass.), then incubate with the same volume of 3 μg PEI-Opti-MEM solution for 20 minutes at room temperature. Then, 100 μL of PEI-combined plasmids were added to every single well of 24-well plate and cultured for 24 hours before experiments were performed. For a 10 cm plate, 1 mL of PEI-combined plasmids were needed. After six hours transfection, cells were washed and incubated for another 1-72 hours before experiments were performed.
Total RNA was extracted using the EZNA Total RNA Kit I (Omega Bio-tek, Inc., Norcross, Ga.). qPCR reactions were performed on cDNA prepared from 1,000 ng of total cellular RNA using the High-Capacity cDNA Reverse Transcription Kit (Applied Biosystems Co., Thermo Fisher Scientific, Inc., Foster City, Calif.). TaqMan qPCR probes (Thermo Fisher Scientific, Inc., Waltham, Mass. IL1RN, Hs00893626; GRM2, Hs00968358; HBA, Hs00361191; MYOD1 Hs02330075; GAPDH, Hs99999905) and Fast Advanced Master Mix (Life Technologies Co., Co., Thermo Fisher Scientific, Inc., Carlsbad, Calif.) were used in multiplexed reactions and 384-well format in a 7900HT Fast Real-Time PCR System (Applied Biosystems Co., Thermo Fisher Scientific, Inc., Foster City, Calif.). All measurements were performed at least in triplicate. Data were analyzed using the SDS software, version 2.4 (Applied Biosystems Co., Thermo Fisher Scientific, Inc., Foster City, Calif.), by the ΔΔCt method: the Ct values of target gene were normalized to Ct values of GAPDH, the folds of target gene expression changes were normalized to experimental controls. Analyzed data are reported as the mean±s.e.m. for biological replicates. In ChIP assays, the Ct values of antibodies pulled down segments were normalized to the Ct values of 10% input.

[2] = test system: six off-target genes (RHOC, IRF2BP2, TFAM, HSD3B7, METTL2A, CEP250) in HEK293T cells; assay: qPCR of mRNA levels of six off-target genes with IL1RN sgRNAs; details: 100 μM ABA for 24 hours vs DMSO
Experimental: FIG. 11. Expression of six off-target genes when induced by ABA using sgRNAs designed for IL1RN. dCas9-PYL-HA, FLAG-ABI-P300 and IL1RN sgRNAs were transfected into HEK293T cells for 24 hours. Cells were then treated with 100 μM of ABA for another 24 hours followed by the analysis of mRNA levels of six off-target genes using q-PCR. The fold changes were calculated by comparing ABA treated cells to cells treated with DMSO. Error bars represent ±s.e.m. from biological replicates (n=6).
It is known that sgRNA/Cas9 can bind to unintended loci, which can lead to off-target effects. To examine if aberrant binding interferes with the interpretation of results, all reported sites in the genome that could potentially be targeted by the IL1RN sgRNAs used in the studies were checked. Changes in the mRNA levels of six genes having TSS close to the off-target sites were monitored (Table 3) after cells were co-transfected with IL1RN sgRNAs, dCas9-PYL-HA and FLAG-ABI-P300 plasmids followed by ABA treatment for 24 hours.
Total RNA was extracted using the EZNA Total RNA Kit I (Omega Bio-tek, Inc., Norcross, Ga.). qPCR reactions were performed on cDNA prepared from 1,000 ng of total cellular RNA using the High-Capacity cDNA Reverse Transcription Kit (Applied Biosystems Co., Thermo Fisher Scientific, Inc., Foster City, Calif.). […] Analyzed data are reported as the mean±s.e.m. for biological replicates. […]

[3] = test system: MYOD1 mRNA in HEK293T cells; assay: qPCR of MYOD1 mRNA levels; details: MYOD1 sgRNAs; ABA vs DMSO
Experimental: To determine if the new method can be used to modify H3K27Ac at other gene loci, sgRNAs were designed that target the promoter region of other genes with low expression levels in HEK293T cells, including GRM2, HBA and MYOD1 (Table 1).
Human embryonic kidney cell HEK293T (American Type Culture Collection, Manassas, Va.) was cultured in Dulbecco's modified Eagle's medium (DMEM) (Gibco) with 10% FBS (Atlanta Biologicals), 1× GlutaMax (Gibco, Thermo Fisher Scientific, Inc., Waltham, Mass.), and 1× penicillin/streptomycin (Pen/Strep; Gibco, Thermo Fisher Scientific, Inc., Waltham, Mass.). Cells (100,000/ml) were plated in 24-well or 10-cm cell culture plate the day before transfection. […]
Total RNA was extracted using the EZNA Total RNA Kit I (Omega Bio-tek, Inc., Norcross, Ga.). qPCR reactions were performed on cDNA prepared from 1,000 ng of total cellular RNA using the High-Capacity cDNA Reverse Transcription Kit (Applied Biosystems Co., Thermo Fisher Scientific, Inc., Foster City, Calif.). […] Data were analyzed using the SDS software, version 2.4 (Applied Biosystems Co., Thermo Fisher Scientific, Inc., Foster City, Calif.), by the ΔΔCt method: the Ct values of target gene were normalized to Ct values of GAPDH, the folds of target gene expression changes were normalized to experimental controls. Analyzed data are reported as the mean±s.e.m. for biological replicates. […]

Question: Which results are given for `CC1=CC(=O)CC(C)(C)[C@@]1(O)/C=C/C(C)=C\C(=O)O` [ABA, abscisic acid]?
Answer: IL1RN mRNA levels after washing ([1]; ABA for 12, 24 or 48 hours, then washed): well correlated with the changes in H3K27Ac levels; IL1RN mRNA level with P300 mutant (D1399Y) lacking acetyltransferase activity ([1]; FLAG-ABI-P300 D1399Y, 100 μM ABA for 24 hours): did not increase; IL1RN mRNA level ([1]; cells transfected with ABI-P300, dCas9-PYL and IL1RN sgRNAs, treated with ABA (100 μM, 24 hours)): IL1RN mRNA level increases; IL1RN mRNA when sgRNAs designed for GRM2, HBA or MYOD1 were used ([1]; sgRNAs for GRM2, HBA or MYOD1 in place of IL1RN, 24-hour ABA treatment): no increase in IL1RN mRNA was observed; time at which the IL1RN mRNA level increases ([1]; time course after ABA addition): four hours after ABA addition; time until which IL1RN mRNA continues to increase rapidly ([1]; time course after ABA addition): about 24 hours; mRNA levels of six off-target genes [2]: None of the six genes display increases in mRNA levels; level of MYOD1 mRNA [3]: increases correspondingly
